According to patent US7851501B2, “Aromatic nitrocatechol compounds and their use for modulating processes mediated by cell adhesion molecules” (Revotar Biopharmaceuticals AG, priority 2005, dated 2010):

How the values were obtained:
[1] = target: T1, human P-Selectin-IgG-chimera (Homo sapiens, UniProt P16109); experiment: Flow chamber assay, cell adhesion and rolling under flow conditions, P-selectin; type: cell-based; conditions: 125 μM compound; HL-60 cells; flow shear 1 dyne/cm^2; after 5 minutes continuous flow
T1 sequence (P16109 with tags, fused parts or gaps limits assumed): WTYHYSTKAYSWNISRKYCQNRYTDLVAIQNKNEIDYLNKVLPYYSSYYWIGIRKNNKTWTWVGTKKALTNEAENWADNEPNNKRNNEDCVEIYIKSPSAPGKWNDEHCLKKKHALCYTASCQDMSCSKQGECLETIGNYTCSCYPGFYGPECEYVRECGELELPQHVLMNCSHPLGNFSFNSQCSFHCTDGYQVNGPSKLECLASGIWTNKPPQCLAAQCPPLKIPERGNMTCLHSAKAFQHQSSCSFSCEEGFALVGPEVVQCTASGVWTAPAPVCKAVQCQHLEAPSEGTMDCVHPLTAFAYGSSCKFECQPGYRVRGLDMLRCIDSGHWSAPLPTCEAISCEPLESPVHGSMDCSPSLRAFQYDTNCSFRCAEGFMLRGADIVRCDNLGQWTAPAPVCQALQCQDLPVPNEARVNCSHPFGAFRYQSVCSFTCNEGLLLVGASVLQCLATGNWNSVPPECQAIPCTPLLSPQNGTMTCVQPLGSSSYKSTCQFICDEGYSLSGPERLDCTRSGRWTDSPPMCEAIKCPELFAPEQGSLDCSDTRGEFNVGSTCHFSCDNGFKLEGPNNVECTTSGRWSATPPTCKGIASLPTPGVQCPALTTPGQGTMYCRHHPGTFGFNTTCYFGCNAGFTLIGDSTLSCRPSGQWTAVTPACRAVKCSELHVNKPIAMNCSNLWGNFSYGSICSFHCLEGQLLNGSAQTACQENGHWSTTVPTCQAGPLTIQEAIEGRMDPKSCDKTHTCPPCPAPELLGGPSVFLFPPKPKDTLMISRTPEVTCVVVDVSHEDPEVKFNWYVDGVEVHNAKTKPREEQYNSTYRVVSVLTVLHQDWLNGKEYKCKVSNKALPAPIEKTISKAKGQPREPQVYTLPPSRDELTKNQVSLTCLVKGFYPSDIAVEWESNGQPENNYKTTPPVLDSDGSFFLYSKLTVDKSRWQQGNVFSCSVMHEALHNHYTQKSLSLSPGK
Experimental: (§1) Values are given as normalized ratios of %-inhibition of compound x divided by %-inhibition of bimosiamose.
(§2) Flow Chamber Assay/Cell Adhesion and Rolling Under Flow Conditions
(§3) To assess the capability of compounds to inhibit cell binding under dynamic conditions resembling the flow in a blood vessel, flow chamber assays addressing/testing binding of HL-60 cells/various cell lines to P-selectin, L-selectin and E-selectin chimeric molecules are performed.
(§4) Cell attachment under flow conditions are determined using a parallel flow chamber system. A 35 mm polystyrene culture dish is coated for 1 hour at room temperature with coating buffer (50 mM tris-(hydroxymethyl)aminomethane buffer (Tris), 150 mM NaCl, 2 mM CaCl2; pH 7.4) containing human E- or P-selectin-IgG chimera at concentrations of 2.5 μg/ml or 10 μg/ml, respectively. After removal of the coating solution non specific binding sites are blocked for an additional hour with 1% BSA in coating buffer at room temperature. After washing with assay buffer (“Roswell Park Memorial Institute 1640” (RPMI 1640)+10 mM HEPES) the dish is fitted into a parallel plate laminar flow chamber (sold from Glycotech, Rockville, Md.) and mounted on an inverted phase-contrast microscope (sold from Olympus, Hamburg, Germany) equipped with a CCD camera (JVC) that is connected to a PC. Employing a peristaltic pump (sold from Ismatec, Wertheim-Mondfeld, Germany) the re-circulating system is equilibrated with assay buffer containing 125 μM compound or vehicle control (DMSO). Cells (1 million/ml) are added to the chamber and allowed to distribute for 2 minutes at a high flow rate. The flow rate is then decreased resulting in a calculated flow shear of 1 dyne/cm^2. Video sequences of 10 low power fields are digitally recorded after 5 minutes continuous flow. The percentage of inhibition is calculated from the mean number of cells per field that attached to the coated dish surface in the presence versus absence of compound […].

[2] = target: T2, human E-Selectin-IgG-chimera (Homo sapiens, UniProt P16581); experiment: Flow chamber assay, cell adhesion and rolling under flow conditions, E-selectin; type: cell-based; conditions: 125 μM compound; HL-60 cells; flow shear 1 dyne/cm^2; after 5 minutes continuous flow
T2 sequence (P16581 with tags, fused parts or gaps limits assumed): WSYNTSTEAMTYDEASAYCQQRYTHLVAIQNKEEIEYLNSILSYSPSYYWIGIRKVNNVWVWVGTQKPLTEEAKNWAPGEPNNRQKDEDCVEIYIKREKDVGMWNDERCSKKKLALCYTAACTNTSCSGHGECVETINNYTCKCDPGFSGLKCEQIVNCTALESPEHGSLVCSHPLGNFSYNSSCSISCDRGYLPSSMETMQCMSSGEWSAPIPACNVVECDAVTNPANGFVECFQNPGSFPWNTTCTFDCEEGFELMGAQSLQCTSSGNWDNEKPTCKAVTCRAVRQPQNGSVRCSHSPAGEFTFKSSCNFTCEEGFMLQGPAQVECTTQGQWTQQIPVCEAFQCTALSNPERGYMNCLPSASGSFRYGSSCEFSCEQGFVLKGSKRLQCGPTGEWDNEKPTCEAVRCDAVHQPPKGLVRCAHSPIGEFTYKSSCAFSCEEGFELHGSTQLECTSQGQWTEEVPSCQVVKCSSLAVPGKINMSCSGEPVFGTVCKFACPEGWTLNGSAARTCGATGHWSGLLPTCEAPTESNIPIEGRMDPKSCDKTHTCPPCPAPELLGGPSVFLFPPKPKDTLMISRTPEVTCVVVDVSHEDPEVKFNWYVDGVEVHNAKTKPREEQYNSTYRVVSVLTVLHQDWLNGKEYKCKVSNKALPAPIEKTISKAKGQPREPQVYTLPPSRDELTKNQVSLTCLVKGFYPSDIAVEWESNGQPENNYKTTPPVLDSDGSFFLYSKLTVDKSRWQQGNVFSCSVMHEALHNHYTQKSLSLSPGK
Experimental: as §1, §2, §3, §4

[3] = target: T1, human P-Selectin-IgG-chimera; experiment: Sialyl Lewis x Tyrosine Sulfate Assay (sLex TSA), P-selectin; conditions: inhibition of binding of sLex-tyrosine sulfate polyacrylamide ligand complex
Experimental: (§5) Compounds of the present invention are assayed on a molecular level for their ability to inhibit the binding of P-, L-, or E-selectin chimeric molecules to sLe^x and tyrosinesulfate residues linked to a polymeric matrix as a PSGL-1 substitute. Selected IC50-values are determined.
(§6) Microtiter plates are coated overnight in carbonate buffer pH9.6 with goat anti human Fc mAB (10 μg/ml). After washing in assay buffer (25 mM 4-(2-hydroxyethyl)-1-piperazineethanesulfonic acid (HEPES), 150 mM NaCl, 1 mM CaCl2 pH7.4) and blocking (3% bovine serum albumin (BSA) in assay buffer) plates are incubated for 2 h at 37° C. with human P-Selectin-IgG-chimera (0.61 nM respectively 150 ng/mL) or human L-Selectin-IgG-chimera (0.61 nM respectively 89 ng/mL) or human E-Selectin-IgG-chimera (0.61 nM respectively 131 ng/mL). 5 μl of sLe^x-tyrosine sulfate polyacrylamide (1 mg/ml) carrying 15% sLe^x, 10% Tyrosine-sulfate and 5% biotin is complexed with […] Streptavidin-Peroxidase solution (1 mg/ml) and 25 μl assay buffer without CaCl2. For use in the assay, the ligand complex is diluted 1:10000 in assay buffer and further diluted 1:1 with varying amounts of compounds in assay buffer incl. 2% DMSO. This mixture is added to the wells precoated with E- or P-selectin. After incubation for 2 h at 37° C., wells are washed for six times with in assay buffer incl. 0.005% Polyoxyethylenesorbitan monolaurate (TWEEN 20), developed for 10-15 min with 20 μl 3,3′,5,5′-tetramethylbenzidine (TMB)/H2O2 substrate solution and stopped with 20 μl 1M H2SO4. Bound sLe^x-Tyrosine sulfate ligand complex is determined by measuring optical density at 450 nm vs. 620 nm in a Fusion alpha-FP reader (sold from Packard Bioscience, Dreieich, Germany).

[4] = target: T2, human E-Selectin-IgG-chimera; experiment: Sialyl Lewis x Tyrosine Sulfate Assay (sLex TSA), E-selectin; conditions: inhibition of binding of sLex-tyrosine sulfate polyacrylamide ligand complex
Experimental: as §5
as §6, with “This mixture is added to the wells precoated with E- or P-selectin. After incubation for 2 h at 37° C., wells are washed for six times with in assay buffer incl. 0.005% Polyoxyethylenesorbitan monolaurate (TWEEN 20), developed for 10-15 min with 20 μl 3,3′,5,5′-tetramethylbenzidine (TMB)/H2O2 substrate solution and stopped with 20 μl 1M H2SO4.” left out

[5] = target: human L-Selectin-IgG-chimera (Homo sapiens, UniProt P14151); experiment: Sialyl Lewis x Tyrosine Sulfate Assay (sLex TSA), L-selectin; conditions: inhibition of binding of sLex-tyrosine sulfate polyacrylamide ligand complex
Chain of human L-Selectin-IgG-chimera (P14151 with tags, fused parts or gaps limits assumed): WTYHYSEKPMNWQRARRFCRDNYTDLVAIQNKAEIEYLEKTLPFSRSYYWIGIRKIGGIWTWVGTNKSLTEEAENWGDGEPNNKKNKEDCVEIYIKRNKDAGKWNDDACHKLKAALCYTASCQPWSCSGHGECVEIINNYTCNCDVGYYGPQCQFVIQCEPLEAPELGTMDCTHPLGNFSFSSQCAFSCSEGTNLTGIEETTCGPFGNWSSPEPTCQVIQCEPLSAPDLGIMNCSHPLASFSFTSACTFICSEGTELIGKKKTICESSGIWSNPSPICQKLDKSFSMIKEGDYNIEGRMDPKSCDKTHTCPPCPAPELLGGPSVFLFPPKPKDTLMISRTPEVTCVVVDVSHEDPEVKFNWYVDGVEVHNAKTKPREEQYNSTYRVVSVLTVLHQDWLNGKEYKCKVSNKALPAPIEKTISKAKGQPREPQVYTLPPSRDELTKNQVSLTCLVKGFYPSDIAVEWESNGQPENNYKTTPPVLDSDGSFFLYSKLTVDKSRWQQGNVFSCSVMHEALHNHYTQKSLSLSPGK
Experimental: as §5, §6

P-Selectin normalized ratio of %-inhibition of compound divided by %-inhibition of bimosiamose [1] | E-Selectin normalized ratio of %-inhibition of compound divided by %-inhibition of bimosiamose [2] | IC50 [3] | IC50 [4] | IC50 [5] | SMILES
0.89 Ratio | 0.98 Ratio | – | – | – | O=C(O)Cc1ccc(-c2ccccc2NC(=O)Cc2cc(O)c(O)c([N+](=O)[O-])c2)s1 [Compound 121, (5-{2-[2-(3,4-Dihydroxy-5-nitro-phenyl)-acetylamino]-phenyl}-thiophen-2-yl)-acetic acid]
0.83 Ratio | n.s. | – | – | – | O=C(Nc1ccccc1)c1cccc(-c2cc(O)c(O)cc2[N+](=O)[O-])c1 [Compound 117, 4′,5′-Dihydroxy-2′-nitro-biphenyl-3-carboxylic acid phenylamide]
1.26 Ratio | 1.00 Ratio | – | – | – | O=C(O)Cc1ccc(-c2ccccc2NC(=O)Cc2cc(O)c(O)cc2[N+](=O)[O-])s1 [Compound 110, (5-{2-[2-(4,5-Dihydroxy-2-nitro-phenyl)-acetylamino]-phenyl}-thiophen-2-yl)-acetic acid]
1.30 Ratio | 1.37 Ratio | – | – | – | Cc1oc(-c2ccc(NC(=O)c3cccc(-c4cc(O)c(O)cc4[N+](=O)[O-])c3)cc2)cc1C(=O)O [Compound 113, 2-Methyl-5-{4-[(2′-nitro-4′,5′-dihydroxy-biphenyl-3-carbonyl)-amino]-phenyl}-furan-3-carboxylic acid]
1.32 Ratio | 1.23 Ratio | 5.2 µM | 308 µM | 8.7 µM | O=C(O)Cc1ccc(-c2ccccc2NC(=O)c2cccc(-c3cc([N+](=O)[O-])cc(O)c3O)c2)s1 [Compound 116, (5-{2-[(2′,3′-Dihydroxy-5′-nitro-biphenyl-3-carbonyl)-amino]-phenyl}-thiophen-2-yl)-acetic acid]
1.72 Ratio | 1.01 Ratio | 4.6 µM | – | 6.6 µM | O=C(Nc1ccccc1-c1ccc(C(=O)O)s1)c1cccc(-c2cc([N+](=O)[O-])cc(O)c2O)c1 [Compound 120, 5-{2-[(2′-3′-Dihydroxy-5′-nitro-biphenyl-3-carbonyl)-amino]-phenyl}-thiophene-2-carboxylic acid]
1.67 Ratio | 0.86 Ratio | 11 µM | 272 µM | 17.1 µM | O=C(Nc1ccccc1-c1ccc(C(=O)O)s1)c1cccc(-c2cc(O)c(O)cc2[N+](=O)[O-])c1 [Compound 119, 5-{2-[(4′,5′-Dihydroxy-2′-nitro-biphenyl-3-carbonyl)-amino]-phenyl}-thiophene-2-carboxylic acid]
1.19 Ratio | 0.84 Ratio | 19.2 µM | – | 39.2 µM | O=C(O)Cc1ccc(-c2ccccc2NC(=O)c2cccc(-c3cc(O)c(O)cc3[N+](=O)[O-])c2)s1 [Compound 118, (5-{2-[(4′,5′-Dihydroxy-2′-nitro-biphenyl-3-carbonyl)-amino]-phenyl}-thiophen-2-yl)-acetic acid]
